Source: patent US10016486B1, “Methods and compositions using AMPK activators for pharmacological prevention of chronic pain” (ARIZONA BOARD OF REGENTS ON BEHALF OF THE UNIVERSITY OF …, priority 2013, dated 2018)
Entries after “also recorded” stand apart in the source; their conditions may differ.

Assays:
Male ICR mice [1] = assay: Plantar incision model: hyperalgesic priming precipitated by intraplantar PGE2 on day 14; assay type: in vivo
Experimental: (§1) Behavior testing: For the testing, animals were placed in acrylic boxes with wire mesh floors and allowed to habituate for approximately 1 h on all testing days. Paw withdrawal thresholds were measured using calibrated von Frey filaments (Stoelting, Wood Dale, Ill.) by stimulating the plantar aspect of left hind paw using the up-down method (Chaplan et al., 1994). Plantar incision and behavioral testing: Prior to surgery all animals were assessed for paw withdrawal thresholds. A mouse model of incisional pain was used for this study (Banik et al., 2006). […] Sham controls underwent the same procedure but without the incision. The skin was apposed with 2 sutures of […]. […] The paw withdrawal thresholds were again measured at 1 h, 3 h and 24 h following the PGE2 injection. Statistical Analysis and Data Presentation: Data are shown as means and the standard error of the mean (±SEM) of 6 animals (for behavioral studies). Graph plotting and statistical analysis used Graphpad Prism Version 5.03 (Graph Pad Software, Inc. San Diego, Calif., USA). Statistical evaluation was performed by one- or two-way analysis of variance (ANOVA), followed by appropriate post-hoc tests. The a priori level of significance at 95% confidence level was considered at p<0.05.

[2] = system: neuropathic allodynia induced by peripheral nerve injury; details: previously demonstrated; cited from earlier work
[3] = system: translation regulation signaling pathways and nascent protein synthesis in injured nerves neurons; details: previously demonstrated; cited from earlier work
Male ICR mice [4] = assay: Plantar incision model: acute mechanical hypersensitivity (paw withdrawal thresholds, von Frey filaments); assay type: in vivo
Experimental: as §1

AMPK = details: independent of upstream kinase LKB1; Lee et al., 2011; read-out: EC50, stimulation of AMPK kinase activity through direct activation; cited from earlier work
Male ICR mice [5] = assay: Wound healing and wound closure after plantar incision (H & E staining); details: maximal doses (resveratrol 10 μg intraplantar, metformin 200 mg/kg i.p., OSU53 10 or 30 μg intraplantar); for wound size vs vehicle treated group: Day 3 after plantar incision; for wound closure: Day 7 after plantar incision
Experimental: Experimental animals: Male ICR mice (Harlan, 20-25 g) were used for the study.
Immunohistochemistry: To determine re-epithelialization, plantar skin was excised from the left hind paw of mice either 3 days or 7 days following plantar incision surgery. The skin was immediately cryoprotected and frozen in O.C.T compound and sectioned (20 μm) on cryostat. The sections were then fixed in formalin and immersed in 0.1% hematoxylin for 3 minutes, washed in tap water, then immersed in 0.1% eosin for 3 minutes, and dehydrated through graded ethanol (Protocol from University of Michigan Center for Organogenesis). Finally sections were coverslipped with Permount (Fisher, Pittsburgh, Pa.). The sections were imaged and the width between 2 epithelial edges was measured using Olympus BX51 microscope.

Male ICR mice [6] = details: local injection of resveratrol into the hind paw following plantar incision; previously demonstrated; cited from earlier work
[7] = system: ERK and mTOR signaling in sensory neurons; details: time- and concentration-dependent; previously demonstrated; cited from earlier work
Male ICR mice [8] = details: local injection of resveratrol into the hind paw following plantar incision; previously demonstrated; cited from earlier work; remark: listed apart in the source
[9] = general statement; cited from earlier work
[10] = OSU53 10 or 30 μg injected locally into the hind paw around the incision
[11] = metformin lower doses (30, 100, 150) intra-peritoneal for 4 days starting 2 days prior to surgery
[12] = metformin maximal dose 200 mg/kg intra-peritoneal for 4 days starting 2 days prior to surgery

Question: Which results are given for N#Cc1c(O)c2c(-c3ccc(-c4ccccc4O)cc3)csc2[nH]c1=O [A-769662]?
Answer: hyperalgesic priming following PGE2 injection on day 14 (Male ICR mice [1]; A-769662 30 mg/kg intra-peritoneal for 4 days starting 2 days prior to surgery): significantly blocked; neuropathic allodynia induced by peripheral nerve injury [2]: resolution of neuropathic allodynia; translation regulation signaling pathways and nascent protein synthesis in injured nerves neurons [3]: inhibited; plantar incision-induced acute mechanical hypersensitivity (Male ICR mice [4]; A-769662 30 mg/kg intra-peritoneal for 4 days starting 2 days prior to surgery, 30 mg/kg): did not block; also recorded: not effective

Question: For CC1(CN2C(=O)S/C(=C\c3ccc(NS(=O)(=O)c4ccc([N+](=O)[O-])c(C(F)(F)F)c4)cc3)C2=O)CCCCC1 [OSU53], which “hyperalgesic priming after PGE2 injection on day 14” value (Male ICR mice [1]; [10]) is on record?
Answer: The value was “significantly blocked; also recorded: dose-relatedly blocked”.

Question: What about the EC50 (AMPK) of the same compound?
Answer: Its EC50 is 300 nM.

Question: What about the “plantar incision-induced acute mechanical hypersensitivity” value (Male ICR mice [4]; [10]) of the same compound?
Answer: Its value is “significantly blocked; also recorded: dose-relatedly blocked”.

Question: What does the source list for CN(C)C(=N)N=C(N)N [metformin]?
Answer: plantar incision-induced hyperalgesic priming precipitated by PGE2 (Male ICR mice [1]; metformin 30, 100, 150 or 200 mg/kg intra-peritoneal for 4 days (FIG. 3 legend, all doses together)): significantly blocked; hyperalgesic priming following PGE2 injection on day 14 (Male ICR mice [1]; [11]): significantly blocked; hyperalgesic priming following PGE2 injection on day 14 (Male ICR mice [1]; [12]): prevented; neuropathic allodynia induced by peripheral nerve injury [2]: resolution of neuropathic allodynia; wound size vs vehicle treated group (Male ICR mice [5]): No differences; wound closure (Male ICR mice [5]): completely closed; translation regulation signaling pathways and nascent protein synthesis in injured nerves neurons [3]: inhibited; plantar incision-induced acute hypersensitivity (Male ICR mice [4]; metformin 30, 100, 150 or 200 mg/kg intra-peritoneal for 4 days (FIG. 2 legend, all doses together)): significantly blocked; plantar incision-induced acute hypersensitivity (Male ICR mice [4]; metformin alone, 150 μg intra-peritoneal for 4 days starting 2 days prior to surgery (sub-efficacious dose)): blunted acute hypersensitivity compared to vehicle treated mice but the effect was not significant; plantar incision-induced acute mechanical hypersensitivity (Male ICR mice [4]; [11]): not effective; plantar incision-induced acute mechanical hypersensitivity (Male ICR mice [4]; [12]): prevented

Question: Which results are given for Oc1ccc(C=Cc2cc(O)cc(O)c2)cc1 [resveratrol]?
Answer: plantar incision-induced hyperalgesic priming precipitated by PGE2 (Male ICR mice [1]; topical resveratrol 100 μg at the time of incision and 1 day post incision, PGE2 100 ng on day 14): significantly blocked; also recorded: prevented the development of hyperalgesic priming; plantar incision-induced hyperalgesic priming precipitated by PGE2 (Male ICR mice [1]; topical resveratrol 100 μg once immediately following incision, PGE2 100 ng on day 14): abolished; also recorded: prevented the development of hyperalgesic priming; wound size vs vehicle treated group (Male ICR mice [5]): no differences; wound closure (Male ICR mice [5]): completely closed; incision-mediated mechanical hypersensitivity (Male ICR mice [6]): attenuates; also recorded: dose-relatedly reverses; plantar incision-induced acute hypersensitivity (Male ICR mice [4]; resveratrol alone, 3 μg injected in hind paw around incision on day of surgery and 24 hrs post-surgery (sub-efficacious dose)): blunted acute hypersensitivity compared to vehicle treated mice but the effect was not significant; plantar incision-induced acute mechanical hypersensitivity (Male ICR mice [4]; topical resveratrol cream (2 mg/ml in PEG), 100 μg, applied once immediately following incision, vs vehicle): blunted; also recorded: blunted hypersensitivity though not significant; plantar incision-induced acute mechanical hypersensitivity (Male ICR mice [4]; topical resveratrol cream, 100 μg, applied twice: immediately following incision and 24 hrs following incision, vs vehicle): significantly blocked; also recorded: significantly attenuated; ERK and mTOR signaling in sensory neurons [7]: profoundly inhibits; hyperalgesic priming induced by incision (Male ICR mice [8]): attenuates; also recorded: dose-relatedly reverses; bioavailability [9]: lacks bioavailability
